Patent publication US20100061994A1, “MEDICAL USES OF 39-DESMETHOXYRAPAMYCIN AND ANALOGUES THEREOF” (priority 2005, published 2010)

What was measured:
1138L = experiment: Monolayer proliferation assay Protocol 1 (propidium iodide); format: cell-based, human; settings: 4 days, mean of duplicate experiments
Experimental: (§1) In vitro evaluation of compounds for anticancer activity in a panel of 12 human tumour cell lines in a monolayer proliferation assay were carried out at the Oncotest Testing Facility, Institute for Experimental Oncology, Oncotest GmbH, Freiburg.
(§2) A modified propidium iodide assay was used to assess the effects of the test compound(s) on the growth of twelve human tumor cell lines (Dengler et al, 1995).
(§3) Briefly, cells were harvested from exponential phase cultures by trypsinization, counted and plated in 96 well flat-bottomed microtitre plates at a cell density dependent on the cell line (5-10.000 viable cells/well). […] Each concentration was plated in triplicate. 39-Desmethoxyrapamycin was applied in two concentrations (0.001 mM and 0.01 mM).
(§4) Growth inhibition was expressed as treated/control×100 (% TIC). For active compounds, IC50 & IC70 values were estimated by plotting compound concentration versus cell viability.
(§5) In vitro evaluation of 39-desmethoxyrapamycin for anticancer activity in a panel of 12 human tumour cell lines in a monolayer proliferation assay was carried out as described as Protocol 1 in the general methods above using a modified propidium iodide assay.

A498 = experiment: as above; format: cell-based, human; settings: 4 days, mean of duplicate experiments
Experimental: as §1, §2, §3, §4, §5

DU145 = experiment: as above; format: cell-based, human; settings: 4 days, mean of duplicate experiments
Experimental: as §1, §2, §3, §4, §5

MDA231 = experiment: as above; format: cell-based, human; settings: 4 days, mean of duplicate experiments
Experimental: as §1, §2, §3, §4, §5

OVCAR3 = experiment: as above; format: cell-based, human; settings: 4 days, mean of duplicate experiments
Experimental: as §1, §2, §3, §4, §5

SF268 = experiment: as above; format: cell-based, human; settings: 4 days, mean of duplicate experiments
Experimental: as §1, §2, §3, §4, §5

EAE = experiment: Experimental allergic encephalomyelitis (EAE) model of multiple sclerosis; format: in vivo, male Lewis rats
U87-MG = experiment: Glioma orthotopically xenografted in nude mice, MRI tumour volume; format: in vivo; settings: 3 mg/kg/inj IV, (Q1D×3)×5W, MRI at D23, mean of 4 values
Experimental: The test compound was dissolved in ethanol (0.027 mL/mg compound) and vortexed for 20 min until the solution was clear. Ethanolic solutions were aliquoted as appropriate and stored at −20° C.
The test substance and control vehicle were administered intravenously (IV, bolus) by injection into the caudal vein of the test mice. An injection volume of 10 mL/kg was used, based on the most recent body weight of mice.
The cell line used for the study was U87-MG, a glioblastoma cell line initiated by J. Ponten from a […] glioblastoma from a person (Poten et al., 1968).
Mice were stereotaxically injected with U87-MG cells at D, 24 to 48 hours after a whole body irradiation with a γ-source (2.5 Gy, Co^60, INRA BRETENIERE, Dijon). For the stereotaxic injection of tumour cells, mice were anesthetised by an intraperitoneal injection of Ketamine 100 mg/kg (Ketamine500®, Ref 043KET204, Centravet, France) and Xylazine 5 mg/kg (Rompun®, Ref 002ROM001, Centravet, France) in 0.9% NaCl solution at 10 mL/kg/inj. […]
After tripilot acquisitions, a turboRare T2 weighted sequence was performed. […] The tumour volume was determined by manually drawing a region of interest (ROI) around the tumour in each slice and by summation of all the surfaces.
Additionally the MRI analysis was used to calculate the average calculated tumour volume per treatment group, the results are summarised in Table 13 below. […]

[1] = 5 mg/kg p.o., Prophylactic regime
[2] = 5 mg/kg p.o., Therapeutic regime
[3] = 15 mg/kg p.o., Prophylactic regime
[4] = 15 mg/kg p.o., Therapeutic regime

Structure (SMILES)	Test/Control (%) at drug concentration (1138L; 1 μM) [%]	Test/Control (%) at drug concentration (1138L; 10 μM) [%]	Test/Control (%) at drug concentration (A498; A498, 1 μM) [%]	Test/Control (%) at drug concentration (A498; A498, 10 μM) [%]	Test/Control (%) at drug concentration (DU145; DU145, 1 μM) [%]	Test/Control (%) at drug concentration (DU145; DU145, 10 μM) [%]	Test/Control (%) at drug concentration (MDA231; MDA231, 1 μM) [%]	Test/Control (%) at drug concentration (MDA231; MDA231, 10 μM) [%]	Test/Control (%) at drug concentration (OVCAR3; OVCAR3, 1 μM) [%]	Test/Control (%) at drug concentration (OVCAR3; OVCAR3, 10 μM) [%]	Test/Control (%) at drug concentration (SF268; SF268, 1 μM) [%]	Test/Control (%) at drug concentration (SF268; SF268, 10 μM) [%]	also measured
COC1CC2CCC(C)C(O)(O2)C(=O)C(=O)N2CCCCC2C(=O)OC(C(C)CC2CCC(O)CC2)CC(=O)C(C)C=C(C)C(O)C(OC)C(=O)C(C)CC(C)C=CC=CC=C1C (centres unmarked) [39-desmethoxyrapamycin]	52	9.5	62.5	43.5	65.5	44.5	68	37.5	77.5	62	57.5	23	Cumulative score Mean ± St Dev. (EAE; [1]): 17 ± 4.6; Duration (days) Mean ± St Dev. (EAE; [1]): 10 ± 1.8 days; Onset Mean ± St Dev. (EAE; [1]): 12 ± 2.1; Cumulative score Mean ± St Dev. (EAE; [2]): 30 ± 3.1; Duration (days) Mean ± St Dev. (EAE; [2]): 15 ± 1.3 days; Onset Mean ± St Dev. (EAE; [2]): 10 ± 1.0; Cumulative score Mean ± St Dev. (EAE; [3]): 22 ± 22; Duration (days) Mean ± St Dev. (EAE; [3]): 10 ± 3.4 days; Onset Mean ± St Dev. (EAE; [3]): 12 ± 2.4; Cumulative score Mean ± St Dev. (EAE; [4]): 32 ± 5.7; Duration (days) Mean ± St Dev. (EAE; [4]): 16 ± 3.3 days; Onset Mean ± St Dev. (EAE; [4]): 9 ± 1.4; efficacy in the EAE model compared to cyclophosphamide (EAE; 5 and 15 mg/kg, prophylactic and therapeutic regime): equivalent efficacy in this model to cyclophosphamide; average calculated tumour volume, Day 23 (mm^3) (U87-MG): 1.25 mm^3
CO[C@H]1C[C@@H]2CC[C@@H](C)[C@@](O)(O2)C(=O)C(=O)N2CCCC[C@H]2C(=O)O[C@H]([C@H](C)C[C@@H]2CC[C@@H](O)[C@H](OC)C2)CC(=O)[C@H](C)/C=C(\C)[C@@H](O)[C@@H](OC)C(=O)[C@H](C)C[C@H](C)/C=C/C=C/C=C/1C [Rapamycin]	42	21.5	58.5	48.5	50.5	54	67	63.5	69	69.5	53.5	46	
